Literature values as cited in patent publication US20130108982A1, “Reshapable Device for Fixation at a Dental Site” (COLLDENT Y.A. LTD., priority 2007, published 2013).

Structure (SMILES) | antibacterial activity (bacteria) | acute lethal dose of fluoride (F) (acute) | chronic toxicity (chronic)
[F][Sn][F] [stannous fluoride] | has shown antibacterial activity |  | 
F [fluoride] |  | 33 mg F/Kg body weight | 0.1 mg F/Kg
